Assay [1] deals with human peptidylarginine deiminase 4 (PAD4) (Homo sapiens, UniProt Q9UM07). Put plainly: Inhibition of the activity of human peptidylarginine deiminase 4 by continuous spectrophotometry. The class given is biochemical. The following applies: human PAD4, isolated component, FIG. 10. As for the experimental part: In this example, inhibition of the activity of human peptidylarginine deiminase 4 (PAD4) was tested by continuous spectrophotometry. The standard PAD4 spectrophotometric reaction mixture contained 10 mM BAEE (benzoyl-L-arginine ethyl ester), 10 mM CaCl2), 2.5 mM dithiothreitol (DTT), 8.5 mM α-ketoglutarate (α-KG), 0.22 mM NADH, and 3 U glutamate dehydrogenase (GDH). 100 mM Tris-HCl (pH 7.5) was added into a 1-mL colorimetric tube, followed by a predetermined amount of an Acacia confusa extract sample as an inhibitor. The temperature was controlled at 37° C. An appropriate amount of PAD4 was then added into the test mixture to start the reaction. Once the enzyme PAD4 was added into the reaction mixture, the decrease in absorbance at 340 nm was continuously recorded with a spectrophotometer (Beckman DU 7500). The unit of the enzyme PAD4 was defined as the amount reduced in order to catalyze the conversion of 1 μmol of NADH to NAD^+ per minute. For the calculation of enzyme activity, 6220 M^−1cm^−1 was used as the molar absorptivity of the NADH.
Referring to the content of Example 3 to detect the inhibiting activity of peptidylarginine deiminase 4 (PAD4) of components of the Acacia confusa ethyl acetate extract: Melanoxetin, Okanin and Transilitin, the results are shown in FIG. 10.

Assay [2] addresses T1, human ornithine decarboxylase (ODC) (Homo sapiens, UniProt P11926).
T1 sequence (P11926 1-461): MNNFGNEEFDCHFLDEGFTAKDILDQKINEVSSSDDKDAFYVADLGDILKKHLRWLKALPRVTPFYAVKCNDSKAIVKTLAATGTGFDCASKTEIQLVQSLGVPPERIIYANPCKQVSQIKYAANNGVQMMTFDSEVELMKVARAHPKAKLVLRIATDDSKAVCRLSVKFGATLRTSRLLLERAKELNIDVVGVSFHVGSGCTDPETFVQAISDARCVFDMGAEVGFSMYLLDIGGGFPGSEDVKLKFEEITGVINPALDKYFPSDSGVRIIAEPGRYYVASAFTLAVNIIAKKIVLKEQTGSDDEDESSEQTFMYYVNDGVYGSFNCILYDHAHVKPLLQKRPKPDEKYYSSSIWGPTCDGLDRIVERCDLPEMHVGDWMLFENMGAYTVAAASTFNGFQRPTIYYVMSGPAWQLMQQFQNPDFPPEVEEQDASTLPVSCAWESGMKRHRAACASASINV
The assay is described as follows: Inhibition of the activity of human ornithine decarboxylase by continuous spectrophotometry. The class given is biochemical. The note with it: isolated component, FIG. 9. The protocol: In this example, inhibition of the activity of human ornithine decarboxylase (ODC) was tested by continuous spectrophotometry. The standard ODC spectrophotometric reaction composition contained 30 mM Tris-HCl (pH 7.8), 10 mM ornithine, and 0.2 mM pyridoxal 5′-phosphate (PLP), together with 12.5 mM phosphoenolpyruvate, 0.4 unit/mL […] of microbes, 4.1 unit/mL malate dehydrogenase (malate dehydrogenase of mammals), and 0.6 mM NADH analog, with the final volume being 0.5 mL. The test mixture was added with a predetermined amount of an Acacia confusa extract sample as an inhibitor and then added with an appropriate amount of ODC to start the reaction. Once the enzyme ODC was added into the reaction mixture, the decrease in absorbance at 405 nm was continuously tracked with Lambda 25 UV-visible spectrophotometer (PerkinElmer Life Sciences). By this test method, 1 mole of CO2 was generated under the test conditions, and 1 mole of NADH analog was oxidized. The unit of the enzyme ODC was defined as the amount of the enzyme that is required to catalyze the generation of 1 mole of NAD per minute. For the calculation, 2410 M^−1cm^−1 was used as the molar absorptivity of the NADH analog. […]

human peptidylarginine deiminase 4 (PAD4), sequence (Q9UM07 whole entry): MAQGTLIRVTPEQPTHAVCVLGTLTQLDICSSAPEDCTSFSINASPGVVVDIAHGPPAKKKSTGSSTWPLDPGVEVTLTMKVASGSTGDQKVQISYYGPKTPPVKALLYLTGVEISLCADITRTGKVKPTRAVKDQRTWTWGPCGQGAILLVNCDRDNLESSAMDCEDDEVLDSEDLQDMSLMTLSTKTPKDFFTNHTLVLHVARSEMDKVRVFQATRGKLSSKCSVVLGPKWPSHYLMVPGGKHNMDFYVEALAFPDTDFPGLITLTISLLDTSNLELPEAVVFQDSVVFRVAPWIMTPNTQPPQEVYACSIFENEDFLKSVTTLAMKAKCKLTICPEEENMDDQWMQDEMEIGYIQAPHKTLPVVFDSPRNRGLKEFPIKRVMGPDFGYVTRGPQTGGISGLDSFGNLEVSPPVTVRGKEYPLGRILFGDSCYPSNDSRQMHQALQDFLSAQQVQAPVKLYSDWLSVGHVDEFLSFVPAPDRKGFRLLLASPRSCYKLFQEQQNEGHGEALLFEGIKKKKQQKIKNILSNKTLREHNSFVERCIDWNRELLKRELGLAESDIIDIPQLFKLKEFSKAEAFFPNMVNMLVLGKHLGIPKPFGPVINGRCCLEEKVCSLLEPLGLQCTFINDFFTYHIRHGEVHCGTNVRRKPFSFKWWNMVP

Consider `O=C(/C=C/c1ccc(O)c(O)c1)c1ccc(O)c(O)c1O` [Okanin, 3,4,2′,3′,4′-pentahydroxy-trans-chalcone], for which the IC50 in assay [1] amounted to 89.2 ± 8.3 µM; in assay [2] it was 8.2 ± 2.1 µM.

A word on the IC50: it is the concentration at which inhibition is half-maximal. Read a low IC50 as higher potency.
